In patent publication US11208421B2, “2-carboxypenam compound or salt thereof, pharmaceutical composition containing novel 2-carboxypenam compound or salt thereof, and applications thereof” (priority 2017, dated 2021):
In brackets after ≈: the same amount, converted by molar mass.

Key:
Format in all cases: cell-based
[1] = tested on: Pseudomonas aeruginosa strain ATCC 27853; experiment: Antibacterial activity evaluation test (MIC), broth microdilution, strain ATCC 27853; conditions: for MIC: Pseudomonas aeruginosa, ATCC27853, read-out: MIC Pseudomonas aeruginosa strain ATCC 27853; for MIC Pseudomonas aeruginosa strain ATCC 27853: cation-adjusted Mueller-Hinton medium supplemented with 20 M of apotransferrin, 35° C., 16 to 20 hours
Method: (§1) The minimum inhibitory concentration (MIC) was measured according to the Clinical and Laboratory Standards Institute (CLSI) standard method by using the following broth microdilution method.
(§2) As bacteria, a Pseudomonas aeruginosa strain ATCC 27853, a Pseudomonas aeruginosa AmpC derepression mutant strain S-3028, and a Pseudomonas aeruginosa IMP-1-producing strain S-2838 were used.
(§3) The Pseudomonas aeruginosa AmpC-derepression mutant strain S-3028 or the Pseudomonas aeruginosa IMP-1-producing strain S-2838 was cultured on a Mueller Hinton agar medium overnight, thereby preparing test bacterial cells. The obtained test bacterial cells were scraped off, suspended to yield 0.5 McFarland equivalence, and diluted 10-fold to obtain an inoculum. A cation-adjusted Mueller Hinton medium containing a test compound was inoculated with 0.0005 mL of the inoculum, and the cells were cultured at 35° C. for 16 to 20 hours. The minimum drug concentration at which the growth of bacteria was not visually observed was defined as MIC.
The MIC of the Pseudomonas aeruginosa ATCC strain 27853 was measured in the same manner as described above by using a cation-adjusted Mueller-Hinton medium supplemented with […] of apotransferrin as a final concentration.

[2] = tested on: Pseudomonas aeruginosa AmpC derepression mutant strain S-3028; experiment: Antibacterial activity evaluation test (MIC), broth microdilution, AmpC derepression mutant strain S-3028; conditions: for MIC: Pseudomonas aeruginosa, read-out: MIC Pseudomonas aeruginosa strain S-3028; for MIC Pseudomonas aeruginosa strain S-3028: AmpC derepression mutant, cation-adjusted Mueller Hinton medium, 35° C., 16 to 20 hours
Method: as §1, §2, §3

[3] = tested on: Pseudomonas aeruginosa IMP-1-producing strain S-2838; experiment: Antibacterial activity evaluation test (MIC), broth microdilution, IMP-1-producing strain S-2838; conditions: for MIC: Pseudomonas aeruginosa, read-out: MIC Pseudomonas aeruginosa strain S-2838; for MIC Pseudomonas aeruginosa strain S-2838: IMP-1-producing strain, cation-adjusted Mueller Hinton medium, 35° C., 16 to 20 hours
Method: as §1, §2, §3

| Structure (SMILES) | MIC [1] [µg/mL] | MIC [2] [µg/mL] | MIC [3] [µg/mL] | MIC Pseudomonas aeruginosa strain ATCC 27853 [1] [µg/mL] | MIC Pseudomonas aeruginosa strain S-3028 [2] [µg/mL] | MIC Pseudomonas aeruginosa strain S-2838 [3] [µg/mL] |
| --- | --- | --- | --- | --- | --- | --- |
| COC[C@H](CS[C@]1(C(=O)O)CN2C(=O)[C@@H](NC(=O)/C(=N\OC(C)(C)C(=O)O)c3csc(N)n3)C2S1)NC(=O)c1ccc(O)c(O)c1Cl (stereo partly drawn) [Example 19, (3R,5R,6R)-6-((Z)-2-(2-aminothiazol-4-yl)-2-(((2-carboxypropan-2-yl)oxy)imino)acetamide)-3-(((R)-2-(2-chloro-3,4-dihydroxybenzamide)-3-methoxypropyl)thio)-7-oxo-4-thia-1-azabicyclo[3.2.0]heptane-3-carboxylic acid] | 0.125 (≈ 0.17 µM) | 1 (≈ 1.36 µM) | 1 (≈ 1.36 µM) | – | – | – |
| CC(C)(O/N=C(\C(=O)N[C@@H]1C(=O)N2C[C@](SCCNC(=O)C(=O)c3ccc(O)c(O)c3Cl)(C(=O)O)S[C@H]12)c1csc(N)n1)C(=O)O [Example 1, (3R,5R,6R)-6-((Z)-2-(2-aminothiazol-4-yl)-2-(((2-carboxypropan-2-yl)oxy)imino)acetamide)-3-((2-(2-(2-chloro-3,4-dihydroxyphenyl)-2-oxoacetamide)ethyl)thio)-7-oxo-4-thia-1-azabicyclo[3.2.0]heptane-3-carboxylic acid] | – | – | – | 0.125 (≈ 0.174 µM) | 128 (≈ 178 µM) | 2 (≈ 2.79 µM) |
| CC(C)(O/N=C(\C(=O)N[C@@H]1C(=O)N2C[C@](SCCNC(=O)/C(=N\NC(N)=O)c3cc(O)c(O)cc3Cl)(C(=O)O)S[C@H]12)c1csc(N)n1)C(=O)O [Example 24, (3R,5R,6R)-6-((Z)-2-(2-aminothiazol-4-yl)-2-(((2-carboxypropan-2-yl)oxy)imino)acetamide)-3-((2-((Z)-2-(2-carbamoylhydrazinylidene)-2-(2-chloro-4,5-dihydroxyphenyl)acetamide)ethyl)thio)-7-oxo-4-thia-1-azabicyclo[3.2.0]heptane-3-carboxylic acid] | 0.5 (≈ 0.646 µM) | 8 (≈ 10.3 µM) | 4 (≈ 5.17 µM) | – | – | – |
| CC(C)(O/N=C(\C(=O)N[C@@H]1C(=O)N2C[C@](SC3CN(C(=O)C(=NNC(N)=O)c4ccc(O)c(O)c4Cl)C3)(C(=O)O)S[C@H]12)c1csc(N)n1)C(=O)O [Example 11, (3R,5R,6R)-6-((Z)-2-(2-aminothiazol-4-yl)-2-(((2-carboxypropan-2-yl)oxy)imino)acetamide)-3-((1-((Z)-2-(2-carbamoylhydrazono)-2-(2-chloro-3,4-dihydroxyphenyl)acetyl)azetidin-3-yl)thio)-7-oxo-4-thia-1-azabicyclo[3.2.0]heptane-3-carboxylic acid] | ≤ 0.0625 | 1 (≈ 1.27 µM) | 2 (≈ 2.54 µM) | – | – | – |
| CC(C)(O/N=C(\C(=O)N[C@@H]1C(=O)N2C[C@](SCCNC(=O)C(=O)c3cc(O)c(O)cc3Cl)(C(=O)O)S[C@H]12)c1csc(N)n1)C(=O)O [Example 23, (3R,5R,6R)-6-((Z)-2-(2-aminothiazol-4-yl)-2-(((2-carboxypropan-2-yl)oxy)imino)acetamide)-3-((2-(2-(2-chloro-4,5-dihydroxyphenyl)-2-oxoacetamide)ethyl)thio)-7-oxo-4-thia-1-azabicyclo[3.2.0]heptane-3-carboxylic acid] | – | – | – | 1 (≈ 1.39 µM) | 2 (≈ 2.79 µM) | 4 (≈ 5.58 µM) |
| CN(CCS[C@]1(C(=O)O)CN2C(=O)[C@@H](NC(=O)/C(=N\OC(C)(C)C(=O)O)c3csc(N)n3)[C@H]2S1)NC(=O)c1ccc(O)c(O)c1Cl [Example 22, (3R,5R,6R)-6-((Z)-2-(2-aminothiazol-4-yl)-2-(((2-carboxypropan-2-yl)oxy)imino)acetamide)-3-((2-(2-(2-chloro-3,4-dihydroxybenzoyl)-1-methylhydrazinyl)ethyl)thio)-7-oxo-4-thia-1-azabicyclo[3.2.0]heptane-3-carboxylic acid] | – | – | – | 0.125 (≈ 0.174 µM) | 8 (≈ 11.1 µM) | 2 (≈ 2.78 µM) |
| CC(C)(O/N=C(\C(=O)N[C@@H]1C(=O)N2C[C@](SC[C@@H]3COCCN3C(=O)c3ccc(O)c(O)c3Cl)(C(=O)O)S[C@H]12)c1csc(N)n1)C(=O)O [Example 27, (3R,5R,6R)-6-((Z)-2-(2-aminothiazol-4-yl)-2-(((2-carboxypropan-2-yl)oxy)imino)acetamide)-3-((((S)-4-(2-chloro-3,4-dihydroxybenzoyl)morpholin-3-yl)methyl)thio)-7-oxo-4-thia-1-azabicyclo[3.2.0]heptane-3-carboxylic acid] | – | – | – | 1 (≈ 1.34 µM) | 0.5 (≈ 0.671 µM) | 0.5 (≈ 0.671 µM) |
| CO[C@@H](CNC(=O)C(=O)c1ccc(O)c(O)c1Cl)CS[C@]1(C(=O)O)CN2C(=O)[C@@H](NC(=O)/C(=N\OC(C)(C)C(=O)O)c3csc(N)n3)C2S1 (stereo partly drawn) [Example 6, (3R,5R,6R)-6-((Z)-2-(2-aminothiazol-4-yl)-2-(((2-carboxypropane-2-yl)oxy)imino)acetamide)-3-(((S)-3-(2-(2-chloro-3,4-dihydroxyphenyl)-2-oxoacetamide)-2-methoxypropyl)thio)-7-oxo-4-thia-1-azabicyclo[3.2.0]heptane-3-carboxylic acid] | 0.25 (≈ 0.328 µM) | 4 (≈ 5.25 µM) | 2 (≈ 2.63 µM) | – | – | – |
| CN(CCS[C@]1(C(=O)O)CN2C(=O)[C@@H](NC(=O)/C(=N\OC(C)(C)C(=O)O)c3csc(N)n3)[C@H]2S1)C(=O)c1ccc(O)c(O)c1Cl [Example 25, (3R,5R,6R)-6-((Z)-2-(2-aminothiazol-4-yl)-2-(((2-carboxypropan-2-yl)oxy)imino)acetamide)-3-((2-(2-chloro-3,4-dihydroxy-N-methylbenzamide)ethyl)thio)-7-oxo-4-thia-1-azabicyclo[3.2.0]heptane-3-carboxylic acid] | 1 (≈ 1.42 µM) | 2 (≈ 2.84 µM) | 1 (≈ 1.42 µM) | – | – | – |
| CC(C)(O/N=C(\C(=O)N[C@@H]1C(=O)N2C[C@](SCCNC(=O)/C(=N\O)c3ccc(O)c(O)c3Cl)(C(=O)O)S[C@H]12)c1csc(N)n1)C(=O)O [Example 4, (3R,5R,6R)-6-((Z)-2-(2-aminothiazol-4-yl)-2-(((2-carboxypropan-2-yl)oxy)imino)acetamide)-3-((2-((Z)-2-(2-chloro-3,4-dihydroxyphenyl)-2-(hydroxyimino)acetamide)ethyl)thio)-7-oxo-4-thia-1-azabicyclo[3.2.0]heptane-3-carboxylic acid] | – | – | – | ≤0.0625 | 8 (≈ 10.9 µM) | 32 (≈ 43.7 µM) |
